Data: patent US8202844B2, “Indole antiviral compositions and methods” (The Regents of the University of Michigan, priority 2003, dated 2012)
Where two headings read alike, the source gives them in different places.

Columns and labels:
[1] = system: human cytomegalovirus (HCMV); conditions: cited from earlier work; for activity against HCMV: literature reports
[2] = system: uninfected host cells; conditions: cited from earlier work
[3] = system: human cytomegalovirus (HCMV); test: HCMV plaque reduction assay; assay type: cell-based, HCMV Towne strain in HFF cells; conditions: for IC50: read-out: 50% Inhibitory Concentration, HCMV Activity
Description: (§1) Virological procedures. The Towne strain, plaque-purified isolate Po, of HCMV was kindly provided by Dr. Mark Stinski, University of Iowa. The KOS strain of HSV-1 was used in most experiments and was provided by Dr. Sandra K. Weller, University of Connecticut. Stock HCMV was prepared by infecting HFF cells at a multiplicity of infection (m.o.i.) of <0.01 plaque-forming units (p.f.u.) per cell as detailed previously (Turk, et al., Agents Chemother. 1987, 31, 544-550, herein incorporated by reference). High titer HSV-1 stocks were prepared by infecting KB cells at an m.o.i. of <0.1 also as detailed previously (see Turk et al.). Virus titers were determined using monolayer cultures of HFF cells for HCMV and monolayer cultures of BSC-1 cells for HSV-1 as described earlier (Prichard, et al., J. Virol. Methods 1990, 28, 101-106, herein incorporated by reference). Briefly, HFF or BSC-1 cells were planted as described above in 96-well cluster dishes and incubated overnight at 37° C. The next day cultures were inoculated with HCMV or HSV-1 and serially diluted 1:3 across the remaining eleven columns of the 96-well plate. After virus adsorption the inoculum was replaced with fresh medium and cultures were incubated for seven days for HCMV, two or three days for HSV-1. Plaques were enumerated under 20-fold magnification in wells having the dilution which gave 5 to 20 plaques per well. Virus titers were calculated according to the following formula: Titer (p.f.u./mL)=number of plaques×5×3^n; where n represents the n^th dilution of the virus used to infect the well in which plaques were enumerated.
HCMV plaque reduction assay. HFF cells in 24-well cluster dishes were infected with approximately 100 p.f.u. of HCMV per cm^2 cell sheet using the procedures detailed above. Following virus adsorption, the compounds, prepared as 10 mg/mL stock solutions in DMSO were diluted with growth medium and were added to duplicate wells in four to eight selected concentrations. After incubation at 37° C. for 7-10 days, cell sheets were fixed, stained with crystal violet and microscopic plaques enumerated as described above. Drug effects were calculated as a percentage of reduction in number of plaques in the presence of each drug concentration compared to the number observed in the absence of drug.
(§2) Data Analysis. Dose response relationships were used to quantitate drug effects by linear regression of the percent inhibition of parameters derived in the preceding assays against log10 drug concentrations. Fifty percent inhibitory concentrations (IC50's) were calculated from the linear portions of the regression lines. Samples containing positive controls (acyclovir for HSV-1, GCV for HCMV, and 2-acetylpyridine thiosemicarbazone for cytotoxicity) were used in all assays.

[4] = system: herpes simplex virus type 1 (HSV-1); test: HSV-1 ELISA; assay type: cell-based, HSV-1 KOS strain in BSC-1 cells
Description: as §1
HSV-1 ELISA. An ELISA was employed (Prichard, et al., Antiviral Res. 1990, 14, 181-206, herein incorporated by reference) to detect HSV-1. Ninety-six-well cluster dishes were planted with 10,000 BSC-1 cells per well in 200 μL per well of MEM(E) plus 10% calf serum. After overnight incubation at 37° C., selected drug concentrations in quadruplicate and HSV-1 at a concentration of 100 p.f.u./well were added. Following a 3-day incubation at 37° C., medium was removed, plates were blocked, rinsed, and horse radish peroxidase conjugated rabbit anti-HSV-1 antibody was added. Following removal of the antibody containing solution, plates were rinsed, and then developed by adding 150 μl per well of a solution of tetramethylbenzidine as substrate. The reaction was stopped with H2SO4 and absorbance was read at 450 and 570 nm. Drug effects were calculated as a percentage of the reduction in absorbance in the presence of each drug concentration compared to absorbance obtained with virus in the absence of drug.
as §2

[5] = Cytotoxicity in stationary HFF cells, microscopic inspection; assay type: cell-based; conditions: human, read-out: 50% Inhibitory Concentration, HFF Cytotoxicity
Description: (§3) Cytotoxicity assays. Two different assays were used for routine cytotoxicity testing. (i) Cytotoxicity produced in stationary HFF cells was determined by microscopic inspection of cells not affected by the virus used in plaque assays (Turk, et al., Agents Chemother. 1987, 31, 544-550, herein incorporated by reference). (ii) The effect of compounds during two population doublings of KB cells was determined by crystal violet staining and spectrophotometric quantitation of dye eluted from stained cells as described earlier (Prichard, et al., Antiviral Res. 1991, 35, 1060-1065, herein incorporated by reference). Briefly, 96-well cluster dishes were planted with KB cells at 3000-5000 cells per well. After overnight incubation at 37° C., test compound was added in quadruplicate at six to eight concentrations. Plates were incubated at 37° C. for 48 h in a CO2 incubator, rinsed, fixed with 95% ethanol, and stained with 0.1% crystal violet. Acidified ethanol was added and plates read at 570 nm in a spectrophotometer designed to read 96-well ELISA assay plates.
as §2

[6] = Cytotoxicity in growing KB cells, crystal violet staining; assay type: cell-based; conditions: human, read-out: 50% Inhibitory Concentration, KB Cytotoxicity
Description: as §3, §2

[7] = system: human cytomegalovirus (HCMV); test: Literature activity against HCMV replication in vitro; assay type: cell-based
[8] = Good et al.; cited from earlier work
[9] = Human alphaherpesvirus 1, BSC-1, read-out: 50% Inhibitory Concentration, HSV-1 Activity
[10] = Human betaherpesvirus 5, plaque reduction in HFF cells
[11] = Human alphaherpesvirus 1, ELISA in BSC-1 cells, read-out: 50% Inhibitory Concentration, HSV-1 Activity
[12] = stationary human foreskin fibroblasts (HFF cells)

For `OC[C@H]1O[C@@H](n2c(Cl)cc3cc(Cl)c(Cl)cc32)[C@H](O)[C@@H]1O` [Compound 4.2, 2,5,6-trichloro-1-(β-D-ribofuranosyl)indole, reference compound], the “activity against HCMV” value [1] is given as “inactive” and the “cytotoxicity” value ([2]; Chen et al.) is given as “non-cytotoxic”.
Work on `O=Cc1c(Cl)n([C@@H]2O[C@H](CO)[C@@H](O)[C@H]2O)c2cc(Cl)c(Cl)cc12` [Compound 4.3, 2,5,6-trichloro-3-formyl-1-(β-D-ribofuranosyl)indole] yielded an IC50 ([3]; Human betaherpesvirus 5, HFF) of 0.2 µM, an IC50 [4, 9] of 40 µM and an IC50 [5] of 45 µM. For the same molecule, the IC50 at 48 h [6] was 45 µM, the “selectivity index (calculated by dividing the CC50 by the IC50)” value [7] was 195 and the IC50 ([1]; Chen thesis, read-out: IC50 against HCMV) was 0.23 µM. The “activity against HCMV” value [1] was “even more active than TCRB” and the CC50 ([2]; Chen thesis, read-out: CC50 against uninfected host cells) was 45 µM.
For `CN(C)c1c(C#N)c2cc(Cl)c(Cl)cc2n1[C@@H]1O[C@H](CO)[C@@H](O)[C@H]1O` [Compound 4.14, 5,6-Dichloro-2-dimethylamino-3-cyano-1-(β-D-ribofuranosyl)indole], the IC50 [3, 10] was 17 µM, the IC50 [4, 11] was > 100 µM and the IC50 [5, 12] was 100 µM. For the same molecule, the IC50 at 48 h [6] was 90 µM.
With `COC(=N)c1c(Cl)n([C@@H]2O[C@H](CO)[C@@H](O)[C@H]2O)c2cc(Cl)c(Cl)cc12` [Compound 4.34, Methyl 2,5,6-Trichloro-1-(β-D-ribofuranosyl)indole-3-formimidate] the IC50 [3, 10] was 0.4 µM, the IC50 [4, 11] was 70 µM and the IC50 [5, 12] was 100 µM. It also gave an IC50 at 48 h [6] of 90 µM.
With `CC(=O)OC[C@H]1O[C@@H](n2c(Cl)c(C(C)=O)c3cc(Cl)c(Cl)cc32)[C@H](O)[C@@H]1O` [Compound 4.43, 2,5,6-Trichloro-3-acetyl-1-(5-O-acetyl-β-D-ribofuranosyl)indole] the “antiviral activity” value ([3]; virus not specified, HCMV and HSV-1 were used) was “comparable to the fully deprotected analog”.
With `C[C@H]1O[C@@H](n2c(Cl)c(C=O)c3cc(Cl)c(Cl)cc32)[C@H](O)[C@@H]1O` [Compound 4.97, 2,5,6-Trichloro-3-formyl-1-(5-deoxy-β-D-ribofuranosyl)indole] the IC50 ([3]; Human betaherpesvirus 5, HFF) was 0.3 µM, the IC50 [4, 9] was 20 µM and the IC50 [5] was 32 µM. For the same molecule, the IC50 at 48 h [6] was 25 µM.
`CC(=O)OC[C@H]1O[C@@H](n2c(Br)c(C=O)c3cc(Cl)c(Cl)cc32)[C@H](O)[C@@H]1O` [Compound 4.136, 5,6-Dichloro-2-bromo-3-formyl-1-(5-O-acetyl-β-D-ribofuranosyl)indole] gave an IC50 ([3]; Human betaherpesvirus 5, HFF) of 0.3 µM, an IC50 [4, 9] of 15 µM and an IC50 [5] of 32 µM. For the same molecule, the IC50 at 48 h [6] was 40 µM.
For `CC(C)Nc1nc2cc(Cl)c(Cl)cc2n1[C@H]1O[C@@H](CO)[C@H](O)[C@@H]1O` [Compound 1263W94], the “activity against HCMV” value [1] is listed as “very active”.
For `OC[C@H]1O[C@@H](n2c(Cl)nc3cc(Cl)c(Cl)cc32)[C@H](O)[C@@H]1O` [TCRB, 2,5,6-trichloro-1-(β-D-ribofuranosyl)benzimidazole], the “activity against HCMV” value [1] is given as “potent and selective inhibitor” and the “in vivo stability” value [8] is given as “in vivo instability”.
